Test results: the NIST ThermoML archive (doi:10.1021/acs.jced.7b00519)
Values joined by “and” are separate entries in the source; they are usually repeats but may differ in a detail not shown here. Equal values may be shown once. ± gives the expanded uncertainty stated by the source.

Conditions: horizontal capillary tube

O [water]
surface tension liquid-gas (249.9 K, Metastable liquid): 78.88 ± 0.8 mN/m and 78.87 ± 0.8 mN/m | surface tension liquid-gas (249.91 K, Metastable liquid): 78.91 ± 0.8 mN/m | surface tension liquid-gas (250.79 K, Metastable liquid): 78.85 ± 0.8 mN/m | surface tension liquid-gas (250.8 K, Metastable liquid): 78.72 ± 0.78 mN/m | surface tension liquid-gas (250.81 K, Metastable liquid): 78.72 ± 0.78 mN/m | surface tension liquid-gas (250.82 K, Metastable liquid): 78.72 ± 0.78 mN/m and 78.77 ± 0.78 mN/m and 78.69 ± 0.78 mN/m | surface tension liquid-gas (251.37 K, Metastable liquid): 78.69 ± 0.8 mN/m and 78.66 ± 0.8 mN/m | surface tension liquid-gas (251.39 K, Metastable liquid): 78.68 ± 0.8 mN/m | surface tension liquid-gas (251.91 K, Metastable liquid): 78.65 ± 0.8 mN/m | surface tension liquid-gas (251.92 K, Metastable liquid): 78.65 ± 0.8 mN/m | surface tension liquid-gas (252.81 K, Metastable liquid): 78.39 ± 0.78 mN/m | surface tension liquid-gas (252.82 K, Metastable liquid): 78.47 ± 0.78 mN/m | surface tension liquid-gas (252.86 K, Metastable liquid): 78.51 ± 0.8 mN/m and 78.48 ± 0.8 mN/m and 78.47 ± 0.8 mN/m | surface tension liquid-gas (252.88 K, Metastable liquid): 78.38 ± 0.78 mN/m and 78.4 ± 0.78 mN/m and 78.41 ± 0.78 mN/m | surface tension liquid-gas (253.36 K, Metastable liquid): 78.37 ± 0.78 mN/m and 78.4 ± 0.78 mN/m | surface tension liquid-gas (253.79 K, Metastable liquid): 78.34 ± 0.78 mN/m | surface tension liquid-gas (253.81 K, Metastable liquid): 78.27 ± 0.78 mN/m | surface tension liquid-gas (254.9 K, Metastable liquid): 78.3 ± 0.8 mN/m | surface tension liquid-gas (254.91 K, Metastable liquid): 78.28 ± 0.8 mN/m | surface tension liquid-gas (255.29 K, Metastable liquid): 78.03 ± 0.8 mN/m | surface tension liquid-gas (255.32 K, Metastable liquid): 78.13 ± 0.78 mN/m | surface tension liquid-gas (255.33 K, Metastable liquid): 78.15 ± 0.78 mN/m | surface tension liquid-gas (255.34 K, Metastable liquid): 78.07 ± 0.78 mN/m [middle of 4 runs] | surface tension liquid-gas (255.84 K, Metastable liquid): 78.05 ± 0.78 mN/m and 78.06 ± 0.78 mN/m | surface tension liquid-gas (255.85 K, Metastable liquid): 78.07 ± 0.78 mN/m | surface tension liquid-gas (256.33 K, Metastable liquid): 77.91 ± 0.78 mN/m | surface tension liquid-gas (256.34 K, Metastable liquid): 77.97 ± 0.78 mN/m | surface tension liquid-gas (256.87 K, Metastable liquid): 77.86 ± 0.78 mN/m and 77.87 ± 0.78 mN/m | surface tension liquid-gas (257.83 K, Metastable liquid): 77.72 ± 0.78 mN/m | surface tension liquid-gas (257.84 K, Metastable liquid): 77.75 ± 0.78 mN/m | surface tension liquid-gas (257.87 K, Metastable liquid): 77.94 ± 0.8 mN/m | surface tension liquid-gas (257.88 K, Metastable liquid): 77.92 ± 0.8 mN/m | surface tension liquid-gas (258.8 K, Metastable liquid): 77.63 ± 0.78 mN/m | surface tension liquid-gas (258.81 K, Metastable liquid): 77.61 ± 0.78 mN/m | surface tension liquid-gas (259.3 K, Metastable liquid): 77.59 ± 0.78 mN/m and 77.6 ± 0.78 mN/m | surface tension liquid-gas (259.8 K, Metastable liquid): 77.54 ± 0.78 mN/m and 77.5 ± 0.78 mN/m | surface tension liquid-gas (260.83 K, Metastable liquid): 77.35 ± 0.78 mN/m | surface tension liquid-gas (260.84 K, Metastable liquid): 77.36 ± 0.78 mN/m | surface tension liquid-gas (261.8 K, Metastable liquid): 77.24 ± 0.76 mN/m | surface tension liquid-gas (261.81 K, Metastable liquid): 77.2 ± 0.76 mN/m | surface tension liquid-gas (262.27 K, Metastable liquid): 77.23 ± 0.78 mN/m | surface tension liquid-gas (262.28 K, Metastable liquid): 77.21 ± 0.78 mN/m | surface tension liquid-gas (262.82 K, Metastable liquid): 77.04 ± 0.78 mN/m and 77.06 ± 0.78 mN/m | surface tension liquid-gas (262.83 K, Metastable liquid): 77.07 ± 0.78 mN/m | surface tension liquid-gas (263.26 K, Metastable liquid): 77 ± 0.76 mN/m | surface tension liquid-gas (263.27 K, Metastable liquid): 77.01 ± 0.76 mN/m | surface tension liquid-gas (263.76 K, Metastable liquid): 76.93 ± 0.78 mN/m | surface tension liquid-gas (263.77 K, Metastable liquid): 76.91 ± 0.78 mN/m and 76.87 ± 0.78 mN/m | surface tension liquid-gas (265.74 K, Metastable liquid): 76.71 ± 0.78 mN/m | surface tension liquid-gas (265.75 K, Metastable liquid): 76.75 ± 0.78 mN/m | surface tension liquid-gas (265.76 K, Metastable liquid): 76.61 ± 0.76 mN/m and 76.68 ± 0.76 mN/m and 76.64 ± 0.76 mN/m | surface tension liquid-gas (265.77 K, Metastable liquid): 76.6 ± 0.78 mN/m | surface tension liquid-gas (265.78 K, Metastable liquid): 76.61 ± 0.78 mN/m | surface tension liquid-gas (266.23 K, Metastable liquid): 76.6 ± 0.76 mN/m and 76.58 ± 0.76 mN/m | surface tension liquid-gas (266.74 K, Metastable liquid): 76.55 ± 0.76 mN/m and 76.54 ± 0.76 mN/m | surface tension liquid-gas (268.21 K, Metastable liquid): 76.34 ± 0.76 mN/m and 76.3 ± 0.76 mN/m | surface tension liquid-gas (268.7 K, Metastable liquid): 76.22 ± 0.8 mN/m | surface tension liquid-gas (269.18 K, Metastable liquid): 76.23 ± 0.76 mN/m | surface tension liquid-gas (269.19 K, Metastable liquid): 76.24 ± 0.76 mN/m | surface tension liquid-gas (269.36 K, Metastable liquid): 76.19 ± 0.76 mN/m | surface tension liquid-gas (269.69 K, Metastable liquid): 76.1 ± 0.76 mN/m | surface tension liquid-gas (270.17 K, Metastable liquid): 76.05 ± 0.76 mN/m | surface tension liquid-gas (270.65 K, Metastable liquid): 76.02 ± 0.76 mN/m | surface tension liquid-gas (270.67 K, Metastable liquid): 76.02 ± 0.76 mN/m | surface tension liquid-gas (272.68 K, Metastable liquid): 75.72 ± 0.76 mN/m | surface tension liquid-gas (272.69 K, Metastable liquid): 75.75 ± 0.76 mN/m | surface tension liquid-gas (273.56 K, Metastable liquid): 75.62 ± 0.74 mN/m | surface tension liquid-gas (273.61 K, Metastable liquid): 75.56 ± 0.78 mN/m | surface tension liquid-gas (273.64 K, Metastable liquid): 75.58 ± 0.74 mN/m | surface tension liquid-gas (273.69 K, Metastable liquid): 75.61 ± 0.78 mN/m and 75.64 ± 0.78 mN/m | surface tension liquid-gas (275.62 K, Liquid): 75.24 ± 0.76 mN/m | surface tension liquid-gas (275.63 K, Liquid): 75.28 ± 0.76 mN/m and 75.24 ± 0.76 mN/m | surface tension liquid-gas (276.61 K, Liquid): 75.19 ± 0.76 mN/m | surface tension liquid-gas (276.63 K, Liquid): 75.19 ± 0.76 mN/m and 75.16 ± 0.76 mN/m | surface tension liquid-gas (278.09 K, Liquid): 74.96 ± 0.74 mN/m | surface tension liquid-gas (278.11 K, Liquid): 74.98 ± 0.74 mN/m | surface tension liquid-gas (279.56 K, Liquid): 74.68 ± 0.74 mN/m | surface tension liquid-gas (279.58 K, Liquid): 74.74 ± 0.74 mN/m | surface tension liquid-gas (280.58 K, Liquid): 74.59 ± 0.74 mN/m | surface tension liquid-gas (280.59 K, Liquid): 74.56 ± 0.74 mN/m and 74.58 ± 0.74 mN/m | surface tension liquid-gas (281.55 K, Liquid): 74.41 ± 0.74 mN/m | surface tension liquid-gas (282.06 K, Liquid): 74.39 ± 0.74 mN/m and 74.37 ± 0.74 mN/m | surface tension liquid-gas (283.5 K, Liquid): 74.17 ± 0.74 mN/m | surface tension liquid-gas (283.59 K, Liquid): 74.17 ± 0.74 mN/m | surface tension liquid-gas (283.6 K, Liquid): 74.15 ± 0.74 mN/m | surface tension liquid-gas (283.67 K, Liquid): 74.15 ± 0.74 mN/m | surface tension liquid-gas (284.61 K, Liquid): 74.14 ± 0.74 mN/m | surface tension liquid-gas (284.62 K, Liquid): 74.11 ± 0.74 mN/m | surface tension liquid-gas (292 K, Liquid): 72.91 ± 0.74 mN/m and 72.88 ± 0.74 mN/m | surface tension liquid-gas (293.63 K, Liquid): 72.7 ± 0.76 mN/m and 72.67 ± 0.76 mN/m | surface tension liquid-gas (293.66 K, Liquid): 72.67 ± 0.74 mN/m and 72.7 ± 0.74 mN/m | surface tension liquid-gas (295.63 K, Liquid): 72.36 ± 0.74 mN/m | surface tension liquid-gas (295.65 K, Liquid): 72.33 ± 0.74 mN/m
